# Patent publication US7858635B2 (priority 2005, dated 2010)
# What was measured:
# M1 muscarinic receptor = target: T1, M1 muscarinic receptor (Homo sapiens, UniProt P11229); test: Functional mobilization of intracellular calcium (FLIPR, Fluo-3), M1-CHO cells; type: cell-based; conditions: compound nos. 1-454; for Emax: 100% efficacy is the maximum response obtained with the Carbachol control, read-out: M1 Efficacy; for M1 Activity: M1-CHO cells, calcium mobilization
# T1 construct: expressed in transfected cells; host or cells: CHO cells (M1-CHO, under zeocin and G418 selection)
# T1 sequence (P11229 1-460): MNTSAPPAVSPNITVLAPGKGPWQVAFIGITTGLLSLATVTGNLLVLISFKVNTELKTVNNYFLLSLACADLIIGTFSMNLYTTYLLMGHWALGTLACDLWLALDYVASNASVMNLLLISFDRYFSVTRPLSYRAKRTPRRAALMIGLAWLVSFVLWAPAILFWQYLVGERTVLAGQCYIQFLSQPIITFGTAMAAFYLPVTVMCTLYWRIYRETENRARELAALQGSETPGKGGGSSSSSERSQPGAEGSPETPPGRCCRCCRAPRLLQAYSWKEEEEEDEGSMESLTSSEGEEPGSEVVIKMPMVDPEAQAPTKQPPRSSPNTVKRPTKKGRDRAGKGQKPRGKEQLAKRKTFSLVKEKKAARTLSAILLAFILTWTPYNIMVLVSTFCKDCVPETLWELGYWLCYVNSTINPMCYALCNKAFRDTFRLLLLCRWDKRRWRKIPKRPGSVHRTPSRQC
# Method in brief: (§1)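 Fluo-3 read-out, ex 488/em 540 nm, 60 sec on FLIPR 3. For agonist mode, compound added directly; for inhibition, 15 min compound pre-incubation before carbachol at EC80 (added as a 3× solution), or co-application. Buffer pH 7.4 with 1 mM probenecid; DMSO 0.5%.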
# M4 muscarinic receptor = target: T2, M4 muscarinic receptor (Homo sapiens, UniProt P08173); test: Functional mobilization of intracellular calcium (FLIPR, Fluo-3), M4-CHO cells; type: cell-based; conditions: compound nos. 1-454; for Emax: 100% efficacy is the maximum response obtained with the Carbachol control, read-out: M4 Efficacy; for M4 Activity: M4-CHO cells, calcium mobilization
# T2 construct: expressed in transfected cells; host or cells: CHO cells (M4-CHO, under puromycin, zeocin and blasticidin selection)
# T2 sequence (P08173 1-479): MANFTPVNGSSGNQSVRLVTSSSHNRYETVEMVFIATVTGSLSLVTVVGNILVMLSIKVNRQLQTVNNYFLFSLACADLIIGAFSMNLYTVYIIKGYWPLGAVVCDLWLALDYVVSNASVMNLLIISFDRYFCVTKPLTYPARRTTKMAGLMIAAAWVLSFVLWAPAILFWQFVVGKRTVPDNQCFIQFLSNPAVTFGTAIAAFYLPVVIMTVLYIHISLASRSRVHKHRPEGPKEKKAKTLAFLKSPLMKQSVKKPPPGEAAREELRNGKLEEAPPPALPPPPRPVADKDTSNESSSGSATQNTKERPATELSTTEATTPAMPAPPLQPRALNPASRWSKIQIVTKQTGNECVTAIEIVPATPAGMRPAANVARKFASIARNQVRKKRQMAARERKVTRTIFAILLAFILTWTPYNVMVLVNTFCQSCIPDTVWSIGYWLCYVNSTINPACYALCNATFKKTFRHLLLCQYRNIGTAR
# Method in brief: as §1
SMILES,Emax (M1 muscarinic receptor) [%],M1 Activity (M1 muscarinic receptor),Emax (M4 muscarinic receptor) [%],M4 Activity (M4 muscarinic receptor)
CCOC(=O)N1CCC(N2CCC3(CC2)CN(C(=O)C2CC2)c2ccc(F)cc23)CC1 [compound 136],> 85,+++ (activity was measured to be less than or equal to 0.7 μM),> 70,+++ (activity was measured to be less than or equal to 0.1 μM)
CCOC(=O)N1CCC(N2CCC3(CC2)CN(C(C)=O)c2ccc(CC)cc23)CC1 [compound 137],> 85,+++ (activity was measured to be less than or equal to 0.7 μM),> 70,+ (activity was measured to be greater than or equal to 4.0 μM)
CC(=O)N1CC2(CCN(C3CC4CCC3C4)CC2)c2cc(C)ccc21 (stereo not shown) [compound 138],65 to 85,+++ (activity was measured to be less than or equal to 0.7 μM),55 to 70,+ (activity was measured to be greater than or equal to 4.0 μM)
CC(C)OC(=O)N1C2CCC1CC(N1CCC3(CC1)C(=O)Nc1ccccc13)C2 (stereo not shown) [compound 139],> 85,+++ (activity was measured to be less than or equal to 0.7 μM),> 70,+++ (activity was measured to be less than or equal to 0.1 μM)
CC(=O)N1CC2(CCN(C3CCN(C(=O)OC4CCC4)CC3)CC2)c2cc(F)ccc21 [compound 140],> 85,+++ (activity was measured to be less than or equal to 0.7 μM),> 70,+++ (activity was measured to be less than or equal to 0.1 μM)
CCOC(=O)N1CCC(N2CCC3(CC2)CN(C(C)=O)c2ccc(Cl)cc23)CC1 [compound 141],> 85,+++ (activity was measured to be less than or equal to 0.7 μM),> 70,++ (activity was measured to be between 0.1 μM and 4.0 μM)
CCOC(=O)N1CCC(N2CCC3(CC2)CN(C(=O)C(C)C)c2ccc(F)cc23)CC1 [compound 142],65 to 85,+++ (activity was measured to be less than or equal to 0.7 μM),> 70,+ (activity was measured to be greater than or equal to 4.0 μM)
CC(=O)N[C@H]1CC2(CCN(C3CCCCCC3)CC2)c2ccccc21 [compound 143],65 to 85,+++ (activity was measured to be less than or equal to 0.7 μM),> 70,+++ (activity was measured to be less than or equal to 0.1 μM)
CCOC(=O)N1CCC(N2CCC3(CC2)CN(C(=O)c2cccnc2)c2ccc(F)cc23)CC1 [compound 144],> 85,+++ (activity was measured to be less than or equal to 0.7 μM),> 70,+++ (activity was measured to be less than or equal to 0.1 μM)
CCOC(=O)N1CCC(N2CCC3(CC2)CN(C(=O)OC(C)C)c2ccc(F)cc23)CC1 [compound 145],> 85,+++ (activity was measured to be less than or equal to 0.7 μM),> 70,+ (activity was measured to be greater than or equal to 4.0 μM)
CCOC(=O)N1CCC(N2CCC3(CC2)CN(C(C)=O)c2ccc(-c4ccccc4F)cc23)CC1 [compound 146],> 85,+++ (activity was measured to be less than or equal to 0.7 μM),> 70,+++ (activity was measured to be less than or equal to 0.1 μM)
CCOC(=O)N1C2CCC1CC(N1CCC3(CC1)C(=O)N(C)c1ccccc13)C2 (stereo not shown) [compound 149],> 85,+++ (activity was measured to be less than or equal to 0.7 μM),> 70,+ (activity was measured to be greater than or equal to 4.0 μM)
CCOC(=O)N1CCC(N2CCC3(CC2)CN(C(C)=O)c2ccc(-c4ccccc4OC)cc23)CC1 [compound 150],65 to 85,+++ (activity was measured to be less than or equal to 0.7 μM),> 70,+ (activity was measured to be greater than or equal to 4.0 μM)
